In patent US20240083885A1, “COMPOSITIONS AND METHODS FOR INHIBITING M PRO PROTEASE ACTIVITY AND FOR PREVENTING AND TREATING SARS-COV-2 INFECTION” (priority 2020, published 2024):
“And” between values parts separate entries of the source, which are not always exact repeats. Equal entries are not always repeated. Where two headings read alike, the source gives them in different places.

Columns and labels:
[1] = in vitro; settings: African green monkey
[2] = in vitro; settings: human, CC50 in Calu-3 cells
[3] = target: T1, SARS-CoV-2 M^pro (Severe acute respiratory syndrome coronavirus 2 (2019-nCoV) (SARS-CoV-2), UniProt P0DTD1); test: biochemical
[4] = target: T1, SARS-CoV-2 M^pro; assay type: binding; settings: native mass spectrometry, covalent adduct
[5] = system: SARS-CoV-2; test: microbe, parasite or virus in culture; assay type: cell-based; settings: for EC50: Severe acute respiratory syndrome coronavirus 2, Vero C1008
[6] = system: Vero E6 cells; test: Cytotoxicity in Vero E6 cells (neutral red uptake); settings: read-out: CC50 in Vero E6 cells
[7] = target: T1, SARS-CoV-2 M^pro; test: biochemical; remark: listed apart in the source
[8] = target: T2, Cathepsin L (Homo sapiens (Human), UniProt P07711); test: Host protease FRET-based enzymatic assay: cathepsin L; assay type: biochemical
T2 sequence (P07711 114-333 limits assumed): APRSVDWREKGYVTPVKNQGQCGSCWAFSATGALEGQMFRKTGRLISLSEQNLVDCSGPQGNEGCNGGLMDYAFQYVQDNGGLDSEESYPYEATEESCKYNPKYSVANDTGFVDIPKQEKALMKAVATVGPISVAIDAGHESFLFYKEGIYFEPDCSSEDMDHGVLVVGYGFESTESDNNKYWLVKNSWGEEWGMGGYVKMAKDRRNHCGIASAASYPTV
Description: The cathepsin L enzymatic assay was carried out as follows: human liver cathepsin L (EMD Millipore 219402) was activated by incubating at reaction buffer (20 mM sodium acetate, 1 mM EDTA and 5 mM DTT pH5.5) for 30 min at 30° C. Upon activation, the assay was assembled in 96-well plates with 100 μl of 300 pM cathepsin L protein in cathepsin L reaction buffer. Then 1 μl testing compound at various concentrations was added to each well and incubated at 30° C. for 30 min. The enzymatic reaction was initiated by adding 1 μl of 100 μM FRET substrate Z-Phe-Arg-AMC (the final substrate concentration is about 1 μM). The reaction was monitored in a Cytation 5 image reader with filters for excitation at 360/40 nm and emission at 460/40 nm at 30° C. for 1 hr. The IC50 values were calculated as described in above section.
(§1) Enzymatic reactions against host proteases (Calpain I, Cathepisn K, Cathespsin L, Caspase-3 and Trypisn) were carried out as previously described (see, Xia, Z.; et al., ACS Pharmacol. Transl. Sci. 2021). Cathepsin B assay reaction was carried out as follows: Cathepsin B (catalog no. CTB-H5222) was diluted into 100 nM final concentration in a buffer containing 20 mM sodium acetate pH5.5, 1 mM EDTA and 2 mM DTT and the mixture was incubated for 30 min at 30° C. Activated Cathepsin B was further diluted to 500 pm in the reaction buffer (100 mM MES pH6.0, 1 mM EDTA, 2 mM DTT and 0.01% TWEEN 20).

[9] = target: calpain I (Homo sapiens (Human), UniProt P07384); test: Host protease FRET-based enzymatic assay: calpain I; assay type: biochemical
Description: as §1

[10] = system: SARS-CoV-2; test: microbe, parasite or virus in culture; assay type: cell-based; settings: Severe acute respiratory syndrome coronavirus 2; read-out: antiviral EC50 against SARS-CoV-2 in Caco2-hACE2 cells
[11] = system: trypsin; test: Host protease FRET-based enzymatic assay: trypsin; assay type: biochemical
[12] = target: caspase-3 (Homo sapiens (Human), UniProt P42574); test: Host protease FRET-based enzymatic assay: caspase-3; assay type: biochemical
Chain of caspase-3 (P42574 29-175 limits assumed): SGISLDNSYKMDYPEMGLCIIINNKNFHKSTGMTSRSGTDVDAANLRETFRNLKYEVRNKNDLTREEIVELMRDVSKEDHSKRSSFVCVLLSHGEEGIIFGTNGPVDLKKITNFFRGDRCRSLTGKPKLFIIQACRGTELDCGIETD
Chain of caspase-3 (P42574 176-277 limits assumed): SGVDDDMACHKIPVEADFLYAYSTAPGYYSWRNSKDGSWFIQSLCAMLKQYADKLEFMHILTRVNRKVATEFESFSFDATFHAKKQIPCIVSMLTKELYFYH
Description: as §1

[13] = target: T1, SARS-CoV-2 M^pro; test: cell-based
[14] = target: T3, Cathepsin B (Homo sapiens (Human), UniProt P07858); test: Host protease FRET-based enzymatic assay: cathepsin B; assay type: biochemical
Description: as §1

[15] = target: cathepsin K (Homo sapiens (Human), UniProt P43235); assay type: biochemical
Chain of cathepsin K (P43235 115-329 limits assumed): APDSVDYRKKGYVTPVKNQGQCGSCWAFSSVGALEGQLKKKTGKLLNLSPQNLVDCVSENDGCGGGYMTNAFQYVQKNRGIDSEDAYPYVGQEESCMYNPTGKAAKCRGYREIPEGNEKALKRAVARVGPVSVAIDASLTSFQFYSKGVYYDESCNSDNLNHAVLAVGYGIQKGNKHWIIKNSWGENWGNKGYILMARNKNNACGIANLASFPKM

[16] = target: T3, Cathepsin B; settings: cited from earlier work
[17] = target: T2, Cathepsin L; settings: cited from earlier work
[18] = read-out: IC50 against SARS-CoV-2 M^pro
[19] = Vero E6 cells, immunofluorescence assay, read-out: SARS-CoV-2 antiviral assay EC50
[20] = read-out: SARS-COV-2 antiviral activity using immunofluorescence assay EC50
[21] = read-out: antiviral EC50 against SARS-CoV-2 in Vero E6 cells
[22] = read-out: Additional off targets: Cathepsin B IC50
[23] = read-out: SARS-CoV-2 M^pro IC50

## O=C(NC1CCCC1)C(c1cccnc1)N(C(=O)CCl)c1ccc(-c2ccccc2)cc1 (stereo not drawn) [Jun9-55-1, 2-(N-{[1,1′-biphenyl]-4-yl}-2-chloroacetamido)-N-cyclopentyl-2-(pyridin-3-yl)acetamide]
[1]; CC50 in Vero E6 cells
  CC50 at 5 days: < 11 µM
[2]
  CC50 at 5 days: < 2 µM

## C[C@H](NC(=O)[C@H](c1cccnc1)N(C(=O)CCl)c1ccc(-n2cccc2)cc1)c1ccccc1 (stereo in doubt) [Jun9-57-3S]
[3]; [18]
  IC50: 1.13 µM
[1]; CC50 in Vero E6 cells
  CC50 at 5 days: < 11 µM
[2]
  CC50 at 5 days: < 2 µM

## C[C@H](NC(=O)[C@@H](c1cccnc1)N(C(=O)CCl)c1ccc(-n2cccc2)cc1)c1ccccc1 [Jun9-57-3R, N-(4-(1H-pyrrol-1-yl)phenyl)-2-chloro-N-((R)-2-oxo-2-(((S)-1-phenylethyl)amino)-1-(pyridin-3-yl)ethyl)acetamide]
[3]; [18]
  IC50: 0.05 µM
[1]; CC50 in Vero E6 cells
  CC50 at 5 days: < 11 µM
[2]
  CC50 at 5 days: < 2 µM

## C[C@H](NC(=O)[C@@H](c1cccnc1)N(C(=O)C(Cl)(Br)Br)c1ccc(-c2ccccc2)cc1)c1ccccc1 [Jun9-89-4R, N-([1,1′-biphenyl]-4-yl)-2,2-dibromo-2-chloro-N-((R)-2-oxo-2-(((S)-1-phenylethyl)amino)-1-(pyridin-3-yl)ethyl)acetamide]
[4]
  mass modification (mass shift) of M^pro adduct: 481 Da and 561 Da
[3]; [18]
  IC50: 0.05 µM
[1]; CC50 in Vero E6 cells
  CC50 at 5 days: 8.41 µM

## C[C@H](NC(=O)[C@@H](c1cccnc1)N(C(=O)C(Br)Br)c1ccc(-c2ccccc2)cc1)c1ccccc1 [Jun9-89-2R]
[4]
  mass modification (mass shift) of M^pro adduct: 526 Da
[3]; IC50 against SARS-CoV-2 M^pro
  IC50: 0.08 µM
[1]; CC50 in Vero E6 cells
  CC50 at 5 days: 8.94 µM

## C[C@H](NC(=O)C(c1cnccn1)N(C(=O)c1ccco1)c1ccc(-c2ccccc2)cc1)c1ccccc1 (stereo partly drawn) [Jun9-4-4]
[3]; [18]
  IC50: 0.28 ± 0.07 µM
[1]; Vero E6 Cytotoxicity CC50 (μM)
  CC50 at 5 days: > 200 µM
[5]
  Selectivity index SI CC50/EC50: >243.9
[5]; [19]
  EC50: 0.82 ± 0.56 µM
[5]; [20]
  EC50: 1.43 µM
[5]; [21]
  EC50: 0.82 to 4.54 µM
[6]
  CC50: > 100 µM

## C[C@H](NC(=O)C(c1cccnc1)N(C(=O)c1ccco1)c1ccc(-c2ccccc2)cc1)c1ccccc1 (stereo partly drawn) [Jun8-76-3]
[3]; IC50 against SARS-CoV-2 M^pro
  IC50: < 3 µM
[3]; SARS-COV-2 main protease enzymatic inhibition IC50
  IC50: 0.31 µM
[3]; SARS-CoV-2 M^pro IC50 (μM)
  IC50: 0.31 ± 0.13 µM
[1]; Vero E6 Cytotoxicity CC50 (μM)
  CC50 at 5 days: > 200 µM
[5]; [19]
  EC50: 1.61 ± 0.29 µM
[5]; [20]
  EC50: 1.83 µM
[5]; [21]
  EC50: 0.82 to 4.54 µM
[6]
  CC50: > 100 µM

## C[C@H](NC(=O)[C@@H](c1cccnc1)N(C(=O)C(Br)(Br)Br)c1ccc(-c2ccccc2)cc1)c1ccccc1 [Jun9-88-6R, N-([1,1′-biphenyl]-4-yl)-2,2,2-tribromo-N-((R)-2-oxo-2-(((S)-1-phenylethyl)amino)-1-(pyridin-3-yl)ethyl)acetamide]
[7]
  kinact/KI: 7070 M⁻¹ s⁻¹
[4]
  mass modification (mass shift) of M^pro adduct: 526 Da
[3]; [18]
  IC50: 0.08 µM
[8]
  IC50: 7.37 µM
  selectivity for inhibiting SARS-CoV-2 M^pro over cathepsin L: 94 fold
[9]
  inhibition of calpain I: did not show potent inhibition
[1]; CC50 in Vero E6 cells
  CC50 at 5 days: 5.48 µM
[10]
  EC50: 2.15 µM
[5]; [21]
  EC50: 0.58 µM
[11]
  inhibition of trypsin (IC50): did not show potent inhibition
[12]
  inhibition of caspase-3 (IC50): did not show potent inhibition
[13]
  EC50: 0.92 µM
[14]
  inhibition of cathepsin B: did not show potent inhibition
[15]
  inhibition of cathepsin K: did not show potent inhibition

## C[C@@H](OC(C)(C)C)[C@H](NC(=O)OCc1ccccc1)C(=O)N[C@@H](CC1CCCCC1)C(=O)N[C@H](C=O)C[C@@H]1CCNC1=O [MPI8]
[16]; [22]
  IC50: 0.23 µM
[16]; read-out: IC50 cathepsin B (recent study)
  IC50: 0.0012 µM
[17]; read-out: Cathepsin L IC50
  IC50: 0.0012 µM
[17]; read-out: IC50 cathepsin L (recent study)
  IC50: 0.23 µM

## PF-00835231
[16]; [22]
  IC50: 1.3 µM
[17]; read-out: Cathepsin L IC50
  IC50: 0.146 µM

## C[C@H](NC(=O)C(c1cnccn1)N(C(=O)CCl)c1ccc(-c2ccccc2)cc1)c1ccccc1 (stereo partly drawn) [Jun9-59-1, 2-(N-{[1,1′-biphenyl]-4-yl}-2-chioroacetamido)-N-[(1S)-1-phenylethyl]-2-(pyrazin-2-yl)acetamide]
[1]; CC50 in Vero E6 cells
  CC50 at 5 days: < 11 µM
[2]
  CC50 at 5 days: < 2 µM

## O=C(NC1CCCCC1)C(c1cccnc1)N(C(=O)CCl)c1ccc(-c2ccccc2)cc1 (stereo not drawn) [Jun9-55-2, N-([1,1′-biphenyl]-4-yl)-2-chloro-N-(2-(cyclohexylamino)-2-oxo-1-(pyridin-3-yl)ethyl)acetamide]
[1]; CC50 in Vero E6 cells
  CC50 at 5 days: < 11 µM
[2]
  CC50 at 5 days: < 2 µM

## O=C(NC1CC1)C(c1cccnc1)N(C(=O)CCl)c1ccc(-c2ccccc2)cc1 (stereo not drawn) [Jun9-57-2, N-([1,1′-biphenyl]-4-yl)-2-chloro-N-(2-(cyclopropylamino)-2-oxo-1-(pyridin-3-yl)ethyl)acetamide]
[1]; CC50 in Vero E6 cells
  CC50 at 5 days: < 11 µM
[2]
  CC50 at 5 days: < 2 µM

## C[C@H](NC(=O)C(c1cnccn1)N(C(=O)c1c[nH]cn1)c1ccc(-c2ccccc2)cc1)c1ccccc1 (stereo partly drawn) [Jun9-5-2]
[3]; [18]
  IC50: 0.67 ± 0.15 µM
[1]; Vero E6 Cytotoxicity CC50 (μM)
  CC50 at 5 days: 148 ± 13.9 µM
[5]
  Selectivity index SI CC50/EC50: 32.6
[5]; [19]
  EC50: 4.54 ± 0.69 µM
[5]; [20]
  EC50: 9.89 µM
[5]; [21]
  EC50: 0.82 to 4.54 µM
[6]
  CC50: > 100 µM

## CC#CC(=O)N(c1ccc(-c2ccccc2)cc1)C(C(=O)N[C@@H](C)c1ccccc1)c1cccnc1 (stereo partly drawn) [Jun9-62-1, N-([1,1′-hiphenyl]-4-yl)-N-(2-oxo-2-(((S)-1-phenylethyl)amino)-1-(pyridin-3-yl)ethyl)but-2-ynamide]
[3]; [18]
  IC50: 1.15 µM
[1]; CC50 in Vero E6 cells
  CC50 at 5 days: 18 µM
[2]
  CC50 at 5 days: 47.8 µM

## C[C@@H](CCc1ccccc1)NC(=O)[C@@H](c1cccnc1)N(C(=O)C(Cl)Cl)c1ccc(-c2ccccc2)cc1 (single isomer, unassigned) [Jun9-90-4R]
[7]
  kinact/KI: 867 M⁻¹ s⁻¹
[3]; [18]
  IC50: 0.46 µM
[1]; CC50 in Vero E6 cells
  CC50 at 5 days: > 100 µM
[10]
  EC50: 1.43 µM
[5]; [21]
  EC50: 1.1 µM
[13]
  EC50: 1.57 µM

## C[C@H](NC(=O)C(c1cccnc1)N(C(=O)c1c[nH]cn1)c1ccc(-c2ccccc2)cc1)c1ccccc1 (stereo partly drawn) [Jun8-90-3]
[3]; [23]
  IC50: 0.96 ± 0.09 µM
[1]; Vero E6 Cytotoxicity CC50 (μM)
  CC50 at 5 days: 129 ± 25.1 µM
[5]; [21]
  EC50: 0.82 to 4.54 µM
[6]
  CC50: > 100 µM

## C[C@H](NC(=O)C(c1cccnc1)N(C(=O)c1ccco1)c1ccc(-n2cccc2)cc1)c1ccccc1 (stereo partly drawn) [Jun8-76-5]
[3]; IC50 against SARS-CoV-2 M^pro
  IC50: < 3 µM
[3]; read-out: SARS-COV-2 main protease enzymatic inhibition IC50
  IC50: 0.94 µM
[3]; [23]
  IC50: 0.94 ± 0.33 µM
[1]; Vero E6 Cytotoxicity CC50 (μM)
  CC50 at 5 days: > 200 µM
[5]
  Selectivity index SI CC50/EC50: >115.6
[5]; [19]
  EC50: 1.73 ± 0.19 µM
[5]; [20]
  EC50: 1.9 µM
[5]; [21]
  EC50: 0.82 to 4.54 µM
[6]
  CC50: > 100 µM
